Test results published in ChEMBL document CHEMBL1139623, “4,5-Disubstituted cis-pyrrolidinones as inhibitors of type II 17beta-hydroxysteroid dehydrogenase. Part 2. SAR” (Bioorg Med Chem Lett, 2005).

What follows are compounds tested against T1, 17-beta-hydroxysteroid dehydrogenase type 2 (Homo sapiens, UniProt P37059) (assay: Inhibitory concentration against 17 beta hydroxysteroid dehydrogenase type 2 (type II 17-beta-HSD II)).
T1 sequence (P37059 whole entry): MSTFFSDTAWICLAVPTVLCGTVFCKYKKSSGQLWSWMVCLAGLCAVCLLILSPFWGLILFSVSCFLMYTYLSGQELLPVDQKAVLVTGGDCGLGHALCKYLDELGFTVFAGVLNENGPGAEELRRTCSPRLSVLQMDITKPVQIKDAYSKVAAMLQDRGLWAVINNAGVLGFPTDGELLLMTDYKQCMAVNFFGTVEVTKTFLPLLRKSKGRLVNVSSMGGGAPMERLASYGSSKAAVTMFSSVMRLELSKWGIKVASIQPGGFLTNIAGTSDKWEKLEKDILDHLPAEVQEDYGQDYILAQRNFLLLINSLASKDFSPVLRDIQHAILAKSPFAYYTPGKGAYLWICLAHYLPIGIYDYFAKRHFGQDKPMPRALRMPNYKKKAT

**Q.** With `Cc1cccc([C@H](O)[C@H]2[C@@H](c3ccccc3)CC(=O)N2C)c1` as the compound, how does the IC50 read?
**A.** 1520 nM

**Q.** With `CN1C(=O)C[C@H](c2ccc([N+](=O)[O-])cc2)[C@@H]1[C@@H](O)c1ccc(-c2ccccc2)s1` as the compound, how does the IC50 read?
**A.** > 10000 nM

**Q.** `CN1C(=O)C[C@H](c2ccccc2)[C@@H]1Cc1cccc(Cl)c1` was tested. Which IC50 did it give?
**A.** 2180 nM

**Q.** For `CN1C(=O)C[C@H](c2ccccc2)[C@@H]1[C@@H](O)c1cc2ccccc2s1`, which IC50 is on record?
**A.** 590 nM

**Q.** For `CN1C(=O)C[C@H](c2ccccc2)[C@@H]1[C@@H](O)CCc1ccccc1`, which IC50 is on record?
**A.** 1830 nM

**Q.** `CN1C(=O)C[C@H](c2ccccc2)[C@@H]1[C@H](O)c1cccc(Cl)c1` was tested. Which IC50 did it give?
**A.** > 10000 nM

**Q.** For `CN1C(=O)C[C@H](c2ccccc2)[C@@H]1[C@@H](O)c1ccc(-c2ccc(O)cc2)cc1`, which IC50 is on record?
**A.** 1130 nM

**Q.** How did the IC50 turn out when `CN1C(=O)C[C@H](c2ccccc2)[C@@H]1[C@@H](O)c1cccc(C(F)(F)F)c1` was run?
**A.** 880 nM

**Q.** `CN1C(=O)C[C@H](c2ccccc2)[C@@H]1[C@@H](O)c1ccc(-c2ccccc2)o1` was tested. Which IC50 did it give?
**A.** 3240 nM

**Q.** For `CN1C(=O)C[C@H](c2ccccc2)[C@@H]1[C@@H](O)c1ccc2c(c1)OCO2`, which IC50 is on record?
**A.** 960 nM

**Q.** With `CN1C(=O)C[C@H](c2ccccc2)[C@@H]1[C@@H](O)c1cccc(-c2ccccc2)c1` as the compound, how does the IC50 read?
**A.** 420 nM

**Q.** How did the IC50 turn out when `CN1C(=O)C[C@H](c2ccccc2)[C@@H]1[C@@H](O)c1cccs1` was run?
**A.** 400 nM

**Q.** How did the IC50 turn out when `O=C1C[C@H](c2ccccc2)[C@H]([C@@H](O)c2cccs2)N1Cc1ccccc1` was run?
**A.** 4180 nM

**Q.** Which IC50 does the source give for `COc1cccc([C@H](O)[C@H]2[C@@H](c3ccccc3)CC(=O)N2C)c1` here?
**A.** 810 nM

**Q.** Which IC50 does the source give for `CN1C(=O)C[C@H](c2ccccc2)[C@@H]1[C@@H](O)C#Cc1ccccc1` here?
**A.** 430 nM

**Q.** Which IC50 does the source give for `CN1C(=O)C[C@H](c2ccccc2)[C@@H]1C(=O)c1cccs1` here?
**A.** > 10000 nM

**Q.** For `CN1C(=O)C[C@H](c2ccccc2)[C@@H]1[C@@H](O)c1ccc(Cl)c(Cl)c1`, which IC50 is on record?
**A.** 440 nM

**Q.** With `COc1cccc(C#C[C@H](O)[C@H]2[C@@H](c3ccccc3)CC(=O)N2C)c1` as the compound, how does the IC50 read?
**A.** 1090 nM

**Q.** Which IC50 does the source give for `Cc1ccc([C@H](O)[C@H]2[C@@H](c3ccccc3)CC(=O)N2C)cc1` here?
**A.** 1820 nM

**Q.** With `CN1C(=O)C[C@H](c2ccccc2)[C@@H]1[C@@H](O)C#Cc1ccccc1F` as the compound, how does the IC50 read?
**A.** 320 nM

**Q.** How did the IC50 turn out when `CN1C(=O)C[C@H](c2ccccc2)[C@@H]1[C@@H](O)C#Cc1cccc(O)c1` was run?
**A.** 1760 nM

**Q.** How did the IC50 turn out when `CN1C(=O)C[C@H](c2ccccc2)[C@@H]1[C@@H](O)c1ccc(Cl)cc1` was run?
**A.** 1960 nM

**Q.** `CN1C(=O)C[C@H](c2ccccc2)[C@@H]1[C@@H](O)c1ccc(Br)o1` was tested. Which IC50 did it give?
**A.** 1270 nM

**Q.** For `CO[C@@H](c1cccc(Cl)c1)[C@H]1[C@@H](c2ccccc2)CC(=O)N1C`, which IC50 is on record?
**A.** 900 nM

**Q.** With `CNc1ccc([C@H]2CC(=O)N(C)[C@H]2[C@@H](O)c2ccc(-c3ccccc3)s2)cc1` as the compound, how does the IC50 read?
**A.** 1670 nM

**Q.** For `CN1C(=O)C[C@H](c2ccccc2)[C@@H]1[C@@H](O)C#Cc1ccc(F)cc1`, which IC50 is on record?
**A.** 480 nM

**Q.** For `CN1C(=O)C[C@H](c2ccccc2)[C@@H]1[C@@H](O)c1ccco1`, which IC50 is on record?
**A.** 3180 nM

**Q.** Which IC50 does the source give for `CN1C(=O)C[C@H](c2ccccc2)[C@@H]1[C@@H](O)c1ccc(-c2ccc(F)cc2)cc1` here?
**A.** 1260 nM

**Q.** `CN1C(=O)C[C@H](c2ccccc2)[C@@H]1[C@@H](O)c1ccccc1` was tested. Which IC50 did it give?
**A.** 5000 nM

**Q.** For `CN1C(=O)C[C@H](c2ccc(N)cc2)[C@@H]1[C@@H](O)c1ccc(-c2ccccc2)s1`, which IC50 is on record?
**A.** 190 nM

**Q.** How did the IC50 turn out when `CN1C(=O)C[C@H](c2ccccc2)[C@@H]1[C@@H](O)Cc1cccc(Cl)c1` was run?
**A.** 2390 nM

**Q.** `CN1C(=O)C[C@H](c2ccccc2)[C@@H]1[C@@H](O)c1coc2ccccc12` was tested. Which IC50 did it give?
**A.** 1160 nM

**Q.** Which IC50 does the source give for `CN1C(=O)C[C@H](c2ccccc2)[C@@H]1[C@@H](O)c1ccc(-c2ccccc2)cc1` here?
**A.** 1020 nM

**Q.** Which IC50 does the source give for `CN1C(=O)C[C@H](c2ccccc2)[C@@H]1[C@@H](O)C(C)(C)C` here?
**A.** > 10000 nM

**Q.** How did the IC50 turn out when `CN(C)c1ccc([C@H](O)[C@H]2[C@@H](c3ccccc3)CC(=O)N2C)cc1` was run?
**A.** 1650 nM

**Q.** `CN1C(=O)C[C@H](c2ccc(O)cc2)[C@@H]1[C@@H](O)c1ccc(-c2ccccc2)s1` was tested. Which IC50 did it give?
**A.** 220 nM

**Q.** How did the IC50 turn out when `Cc1ccc([C@H](O)[C@H]2[C@@H](c3ccccc3)CC(=O)N2C)s1` was run?
**A.** 560 nM

**Q.** `CN1C(=O)C[C@H](c2ccccc2)[C@@H]1[C@@H](O)c1ccc(Br)s1` was tested. Which IC50 did it give?
**A.** 1200 nM

**Q.** With `CN1C(=O)C[C@H](c2ccccc2)[C@@H]1[C@@H](O)C#Cc1cccc(N)c1` as the compound, how does the IC50 read?
**A.** 370 nM

**Q.** `Cc1ccc(C#C[C@H](O)[C@H]2[C@@H](c3ccccc3)CC(=O)N2C)cc1` was tested. Which IC50 did it give?
**A.** 800 nM

**Q.** For `COc1ccc([C@H](O)[C@H]2[C@@H](c3ccccc3)CC(=O)N2C)cc1`, which IC50 is on record?
**A.** 1230 nM

**Q.** With `CN1C(=O)C[C@H](c2ccccc2)[C@@H]1[C@@H](O)C#Cc1ccccn1` as the compound, how does the IC50 read?
**A.** 1500 nM

**Q.** For `CN1C(=O)C[C@H](c2ccccc2)[C@@H]1[C@@H](O)/C=C/c1ccc(F)cc1`, which IC50 is on record?
**A.** 1400 nM

**Q.** How did the IC50 turn out when `CN(C)c1ccc([C@H]2CC(=O)N(C)[C@H]2[C@@H](O)c2ccc(-c3ccccc3)s2)cc1` was run?
**A.** 2430 nM

**Q.** Which IC50 does the source give for `CN1C(=O)C[C@H](c2ccccc2)[C@@H]1[C@@H](O)c1cc2ccccc2[nH]1` here?
**A.** > 10000 nM

**Q.** Which IC50 does the source give for `CN1C(=O)C[C@H](c2ccccc2)[C@@H]1[C@@H](O)c1cccc(-c2ccc(F)cc2)c1` here?
**A.** 2780 nM

**Q.** How did the IC50 turn out when `CC(=O)O[C@@H](c1cccs1)[C@H]1[C@@H](c2ccccc2)CC(=O)N1C` was run?
**A.** 1370 nM

**Q.** `CN1C(=O)C[C@H](c2ccccc2)[C@@H]1[C@@H](O)C#Cc1ccccc1Cl` was tested. Which IC50 did it give?
**A.** 300 nM

**Q.** Which IC50 does the source give for `CC(=O)Nc1ccc([C@H]2CC(=O)N(C)[C@H]2[C@@H](O)c2ccc(-c3ccccc3)s2)cc1` here?
**A.** > 10000 nM

**Q.** Which IC50 does the source give for `CN1C(=O)C[C@H](c2ccccc2)[C@@H]1[C@@H](O)c1ccc(-c2ccccc2)s1` here?
**A.** 100 nM

**Q.** `CN1C(=O)C[C@H](c2ccccc2)[C@@H]1[C@@H](O)CCc1ccc(F)cc1` was tested. Which IC50 did it give?
**A.** 1530 nM

**Q.** With `CN1C(=O)C[C@H](c2ccccc2)[C@@H]1[C@@H](O)c1cccc(Cl)c1` as the compound, how does the IC50 read?
**A.** 700 nM

**Q.** With `CN1C(=O)C[C@H](c2ccccc2)[C@@H]1C(F)c1cccs1` (some centres not stated) as the compound, how does the IC50 read?
**A.** 2980 nM

**Q.** With `COc1ccc([C@H]2CC(=O)N(C)[C@H]2[C@@H](O)c2ccc(-c3ccccc3)s2)cc1` as the compound, how does the IC50 read?
**A.** 890 nM

**Q.** How did the IC50 turn out when `CN1C(=O)C[C@H](c2ccccc2)[C@@H]1[C@@H](OCCO)c1cccs1` was run?
**A.** > 10000 nM

**Q.** Which IC50 does the source give for `CN1C(=O)C[C@H](c2ccccc2)[C@@H]1[C@@H](O)c1csc2ccccc12` here?
**A.** 2660 nM

**Q.** `CO[C@@H](c1cccs1)[C@H]1[C@@H](c2ccccc2)CC(=O)N1C` was tested. Which IC50 did it give?
**A.** 3910 nM

**Q.** How did the IC50 turn out when `O=C1C[C@H](c2ccccc2)[C@H]([C@@H](O)c2cccs2)N1` was run?
**A.** > 10000 nM

**Q.** With `CN1C(=O)C[C@H](c2ccccc2)[C@@H]1C(=O)c1cccc(Cl)c1` as the compound, how does the IC50 read?
**A.** > 10000 nM

**Q.** How did the IC50 turn out when `CN1C(=O)C[C@H](c2ccc(NS(C)(=O)=O)cc2)[C@@H]1[C@@H](O)c1ccc(-c2ccccc2)s1` was run?
**A.** > 10000 nM

**Q.** With `CN1CC[C@H](c2ccccc2)[C@@H]1[C@@H](O)c1cccs1` as the compound, how does the IC50 read?
**A.** > 10000 nM

**Q.** With `CN1C(=S)C[C@H](c2ccccc2)[C@@H]1[C@@H](O)c1cccs1` as the compound, how does the IC50 read?
**A.** > 10000 nM
